From patent US12421252B2, “Spiro (isobenzofuranazetidine) compounds for the treatment of autoimmune disease” (Hoffmann-La Roche Inc., priority 2020, dated 2025)

Tests used:
hTLR9 = molecular target: T1, hTLR9 (Homo sapiens, UniProt Q9NR96); parameters: host or cells: HEK; conditions: data disclosed in US20150105370; read-out: HEK/hTLR9 IC50; cited from earlier work
T1 sequence (Q9NR96 26-1032): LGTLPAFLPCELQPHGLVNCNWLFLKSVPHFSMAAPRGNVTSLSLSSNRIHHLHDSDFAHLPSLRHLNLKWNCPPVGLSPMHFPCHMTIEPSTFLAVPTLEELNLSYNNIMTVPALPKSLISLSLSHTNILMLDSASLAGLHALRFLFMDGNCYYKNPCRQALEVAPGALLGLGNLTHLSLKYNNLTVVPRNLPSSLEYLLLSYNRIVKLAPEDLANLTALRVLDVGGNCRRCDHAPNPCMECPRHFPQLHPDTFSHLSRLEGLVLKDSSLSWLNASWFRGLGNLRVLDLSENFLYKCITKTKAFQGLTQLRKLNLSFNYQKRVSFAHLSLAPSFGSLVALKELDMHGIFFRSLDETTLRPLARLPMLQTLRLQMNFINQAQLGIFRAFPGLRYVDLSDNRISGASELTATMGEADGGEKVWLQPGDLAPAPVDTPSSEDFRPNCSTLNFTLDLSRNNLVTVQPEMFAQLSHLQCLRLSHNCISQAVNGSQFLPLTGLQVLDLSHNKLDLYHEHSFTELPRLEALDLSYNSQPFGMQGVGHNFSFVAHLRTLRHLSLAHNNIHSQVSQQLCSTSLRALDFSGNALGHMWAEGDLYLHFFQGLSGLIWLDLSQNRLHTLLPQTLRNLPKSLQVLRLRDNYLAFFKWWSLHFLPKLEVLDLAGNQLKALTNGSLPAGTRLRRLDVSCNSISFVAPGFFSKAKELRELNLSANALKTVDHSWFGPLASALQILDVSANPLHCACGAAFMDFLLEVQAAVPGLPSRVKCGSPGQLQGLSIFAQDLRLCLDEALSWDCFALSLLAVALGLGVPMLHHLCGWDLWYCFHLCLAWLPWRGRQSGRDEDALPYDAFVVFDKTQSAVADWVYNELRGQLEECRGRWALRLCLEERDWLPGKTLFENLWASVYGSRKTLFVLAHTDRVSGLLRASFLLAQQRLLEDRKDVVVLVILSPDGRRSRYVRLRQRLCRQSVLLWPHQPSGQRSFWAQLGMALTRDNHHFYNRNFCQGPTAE

hERG channel = molecular target: T2, hERG channel (Homo sapiens, UniProt Q12809); assay: hERG channel inhibition assay (patch-clamp, CHO hERG cells); assay type: cell-based; conditions: for safety window (hERG IC20/TLR7/8/9 IC50, in words): compared to the compounds of this invention; for hERG IC20/TLR7 IC50 / hERG IC20/TLR9 IC50: safety ratio
T2 construct: expressed in transfected cells
Procedure: hERG Channel Inhibition Assay:
The hERG K+ channels were cloned in humans and stably expressed in a CHO (Chinese hamster ovary) cell line. CHOhERG cells were used for patch-clamp (voltage-clamp, whole-cell) experiments. Cells were stimulated by a voltage pattern to activate hERG channels and conduct IKhERG Currents (rapid delayed outward rectifier potassium current of the hERG channel). After the cells were stabilized for a few minutes, the amplitude and kinetics of IKhERG were recorded at a stimulation frequency of 0.1 Hz, (6 bpm). Thereafter, the test compound was added to the preparation at increasing concentrations. For each concentration, an attempt was made to reach a steady-state effect, usually, this was achieved within 3-10 min at which time the next highest concentration was applied. The amplitude and kinetics of IKhERG are recorded in each concentration of the drug which were compared to the control values (taken as 100%). (references: Redfern W S, Carlsson L, Davis A S, Lynch W G, MacKenzie I, Palethorpe S, Siegl P K, Strang I, Sullivan A T, Wallis R, Camm A J, Hammond T G. 2003; Relationships between preclinical cardiac electrophysiology, clinical QT interval prolongation and torsade de pointes for a broad range of drugs: evidence for a provisional safety margin in drug development. Cardiovasc. Res. 58:32-45, Sanguinetti M C, Tristani-Firouzi M. 2006; hERG potassium channels and cardiac arrhythmia. Nature 440:463-469, Webster R, Leishman D, Walker D. 2002; Towards a drug concentration effect relationship for QT prolongation and torsades de pointes. Curr. Opin. Drug Discov. Devel. 5:116-26).

CYP3A4 = molecular target: T3, CYP3A4 (Homo sapiens, UniProt P08684); assay: CYP inhibition assay in human liver microsome, CYP3A4; assay type: in vitro ADME; conditions: percentage inhibition, substrate Midazolam 5 μM, <0: not or weak inhibitor
T3 construct: tissue BD-Gentest 452117; host or cells: human liver microsomes
Procedure: (§1) This is a high throughput screening assay used for assessment of reversible inhibition of CYP2C9, CYP2D6, and CYP3A4 activity of test compounds in human liver microsome (HLM) in early discovery stage.
(§2) Procedure 10 mM DMSO stock solutions of test compounds were diluted in DMSO to generate 2 mM intermediate stock solution. 250 nL of intermediate stock solution were transferred in duplicate into 3 separate 384 well microtitre plates (assay-ready plates). A mixture of HLM and each substrate was made up. 45 μL of HLM substrate mix was then transferred to each well of an assay ready plate and mixed. The negative (solvent) and positive controls (standard inhibitor for each CYP) were included in each assay ready plate. The assay ready plate was warmed to 37° C. in an incubator over 10 minutes. 5 μL pre-warmed NADPH regenerating system was added to each incubation well to start the reaction. Final incubation volume was 50 μL. The assay plate then was placed back in the 37° C. incubator. After incubation (10 minutes for CYP2D6) for 5 minutes, incubates were quenched by addition of 50 μL 100% acetonitrile containing internal standards (400 ng/mL 13C6-4′-OH-Diclofenac, 20 ng/mL D3-Dextrorphan and 20 ng/mL D4-1′OH-Midazolam). The supernatants were collected for RapidFire/MS/MS analysis.
(§3) RapidFire online solid phase extraction/sample injection system (Agilent) coupled with API4000 triple quadrupole mass spectrometer (AB Sciex) were used for sample analysis. The mobile phase composed of acetonitrile and water supplemented with 0.1% formic acid. A C4 solid phase extraction cartridge is used for sample separation. MS detection is achieved in positive ion MRM mode.
(§4) Data analysis Peak areas for substrate, metabolite and internal standard are determined using the RapidFire integrator software (version 3.6.12009.12296). Peak area ratios (PAR) of metabolite and internal standard (stable-labelled metabolite) are then calculated. The measurement window for each experiment is then defined: PAR (0% activity)=average PAR for all incubations containing concentrated inhibitor; Par (100% activity)=average PAR for all incubations containing no inhibitor (DMSO controls); % Activity (test inhibitor)=[PAR (test inhibitor)-PAR (0% activity)]/[PAR (100% activity)-PAR (0% activity)]; % Inhibition (test inhibitor)=100-% Activity (test inhibitor).

CYP2D6 = molecular target: T4, CYP2D6 (Homo sapiens, UniProt P10635); assay: CYP inhibition assay in human liver microsome, CYP2D6; assay type: in vitro ADME; conditions: percentage inhibition, substrate Dextromethorphan 5 μM, <0: not or weak inhibitor
T4 construct: tissue BD-Gentest 452117; host or cells: human liver microsomes
Procedure: as §1, §2, §3, §4

CYP2C9 = molecular target: T5, CYP2C9 (Homo sapiens, UniProt P11712); assay: CYP inhibition assay in human liver microsome, CYP2C9; assay type: in vitro ADME; conditions: percentage inhibition, substrate Diclofenac 5 μM, <0: not or weak inhibitor
T5 construct: tissue BD-Gentest 452117; host or cells: human liver microsomes
Procedure: as §1, §2, §3, §4

T2 sequence (Q12809 whole entry): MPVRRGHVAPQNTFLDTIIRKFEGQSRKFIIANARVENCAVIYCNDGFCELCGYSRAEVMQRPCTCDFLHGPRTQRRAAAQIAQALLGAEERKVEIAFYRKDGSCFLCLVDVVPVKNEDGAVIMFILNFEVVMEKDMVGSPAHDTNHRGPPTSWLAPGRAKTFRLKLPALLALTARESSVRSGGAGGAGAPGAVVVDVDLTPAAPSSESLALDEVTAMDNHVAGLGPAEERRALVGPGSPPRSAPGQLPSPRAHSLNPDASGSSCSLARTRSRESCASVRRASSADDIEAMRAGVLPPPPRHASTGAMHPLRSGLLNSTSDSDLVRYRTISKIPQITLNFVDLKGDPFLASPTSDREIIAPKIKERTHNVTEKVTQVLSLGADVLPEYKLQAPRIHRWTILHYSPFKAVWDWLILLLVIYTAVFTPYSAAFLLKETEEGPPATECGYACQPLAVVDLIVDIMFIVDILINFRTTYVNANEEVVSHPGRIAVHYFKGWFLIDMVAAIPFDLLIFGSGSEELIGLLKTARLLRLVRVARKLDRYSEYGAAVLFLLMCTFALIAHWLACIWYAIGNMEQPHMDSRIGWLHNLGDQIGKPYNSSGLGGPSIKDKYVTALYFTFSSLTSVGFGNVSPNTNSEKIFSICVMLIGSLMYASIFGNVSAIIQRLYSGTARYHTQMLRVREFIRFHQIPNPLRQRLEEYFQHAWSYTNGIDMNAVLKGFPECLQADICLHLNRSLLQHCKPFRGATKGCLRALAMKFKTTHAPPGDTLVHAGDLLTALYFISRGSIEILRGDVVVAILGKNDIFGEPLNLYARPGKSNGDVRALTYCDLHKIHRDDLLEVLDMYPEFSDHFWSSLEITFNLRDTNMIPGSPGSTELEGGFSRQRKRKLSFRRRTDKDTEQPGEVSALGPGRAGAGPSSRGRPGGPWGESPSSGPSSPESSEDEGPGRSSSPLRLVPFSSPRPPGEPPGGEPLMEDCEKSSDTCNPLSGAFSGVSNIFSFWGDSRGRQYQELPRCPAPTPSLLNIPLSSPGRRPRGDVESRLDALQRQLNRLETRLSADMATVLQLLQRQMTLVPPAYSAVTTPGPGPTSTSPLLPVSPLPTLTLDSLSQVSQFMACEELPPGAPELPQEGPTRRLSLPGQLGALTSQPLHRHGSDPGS
T4 sequence (P10635 whole entry): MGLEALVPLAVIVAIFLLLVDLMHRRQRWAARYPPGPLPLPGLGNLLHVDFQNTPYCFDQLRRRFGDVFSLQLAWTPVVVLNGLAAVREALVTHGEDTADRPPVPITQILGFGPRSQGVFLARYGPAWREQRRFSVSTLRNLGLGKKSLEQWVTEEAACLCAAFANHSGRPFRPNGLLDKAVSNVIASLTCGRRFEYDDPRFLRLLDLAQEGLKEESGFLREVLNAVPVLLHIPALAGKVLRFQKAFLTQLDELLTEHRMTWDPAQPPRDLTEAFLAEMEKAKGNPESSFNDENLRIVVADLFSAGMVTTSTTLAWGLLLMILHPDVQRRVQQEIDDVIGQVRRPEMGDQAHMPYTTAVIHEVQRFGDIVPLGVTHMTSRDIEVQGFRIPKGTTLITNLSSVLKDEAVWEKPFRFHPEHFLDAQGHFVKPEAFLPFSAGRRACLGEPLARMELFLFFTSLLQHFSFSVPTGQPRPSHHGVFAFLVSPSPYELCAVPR
T3 sequence (P08684 whole entry): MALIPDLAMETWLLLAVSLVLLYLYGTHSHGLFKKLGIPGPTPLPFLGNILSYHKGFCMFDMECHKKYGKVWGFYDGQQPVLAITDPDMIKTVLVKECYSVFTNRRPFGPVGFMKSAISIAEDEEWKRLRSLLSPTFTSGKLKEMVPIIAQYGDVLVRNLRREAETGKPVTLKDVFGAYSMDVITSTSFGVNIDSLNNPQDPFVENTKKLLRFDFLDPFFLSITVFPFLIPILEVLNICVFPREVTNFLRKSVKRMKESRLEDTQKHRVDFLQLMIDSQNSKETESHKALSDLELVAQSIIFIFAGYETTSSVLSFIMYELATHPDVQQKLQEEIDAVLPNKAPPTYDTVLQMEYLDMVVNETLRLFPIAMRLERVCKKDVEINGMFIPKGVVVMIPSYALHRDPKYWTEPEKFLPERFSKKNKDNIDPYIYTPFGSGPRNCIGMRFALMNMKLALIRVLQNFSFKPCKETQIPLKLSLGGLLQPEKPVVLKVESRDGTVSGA
T5 sequence (P11712 whole entry): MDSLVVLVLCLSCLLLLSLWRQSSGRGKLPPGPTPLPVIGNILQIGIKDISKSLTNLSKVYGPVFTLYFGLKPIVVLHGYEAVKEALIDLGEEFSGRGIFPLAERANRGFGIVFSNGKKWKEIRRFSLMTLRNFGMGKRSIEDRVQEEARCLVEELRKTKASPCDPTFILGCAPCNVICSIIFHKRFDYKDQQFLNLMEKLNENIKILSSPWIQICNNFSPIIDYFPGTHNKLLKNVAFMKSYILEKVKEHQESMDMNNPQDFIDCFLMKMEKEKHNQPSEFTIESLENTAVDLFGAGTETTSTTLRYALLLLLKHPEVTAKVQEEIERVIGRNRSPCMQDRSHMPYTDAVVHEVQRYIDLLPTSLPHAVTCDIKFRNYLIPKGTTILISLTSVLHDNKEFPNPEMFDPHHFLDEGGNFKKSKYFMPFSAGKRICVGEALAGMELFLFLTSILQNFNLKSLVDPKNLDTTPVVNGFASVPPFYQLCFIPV

Compound: C[C@@H]1CN(c2ccc(C#N)c3ncccc23)C[C@H](CN2CCN(c3ccccn3)CC2)O1 [ER-888285, reference compound]
- IC50 (hTLR9): > 2000 nM
- safety window (hERG IC20/TLR7/8/9 IC50, in words) (hERG channel): much narrower safety window
- hERG IC20/TLR7 IC50 (hERG channel): 8.4
- hERG IC20/TLR9 IC50 (hERG channel): 0.5

Compound: C[C@@H]1CN(c2ccc(C#N)c3ncccc23)C[C@H](CN2CCN(c3ccccc3)CC2)O1 [ER-887258, reference compound]
- IC50 (hTLR9): > 2000 nM
- safety window (hERG IC20/TLR7/8/9 IC50, in words) (hERG channel): much narrower safety window
- hERG IC20/TLR7 IC50 (hERG channel): 8.1
- hERG IC20/TLR9 IC50 (hERG channel): 0.3

Compound: C[C@@H]1CN(c2ccc(C#N)c3ncccc23)C[C@H](CN2CCN(c3ccncc3)CC2)O1 [ER-888286, reference compound]
- CYP (%) 3A4 (CYP3A4): 5.5%
- CYP (%) 2D6 (CYP2D6): 52.5%
- CYP (%) 2C9 (CYP2C9): 29.5%
- IC50 (hTLR9): > 2000 nM
- safety window (hERG IC20/TLR7/8/9 IC50, in words) (hERG channel): much narrower safety window
- hERG IC20/TLR7 IC50 (hERG channel): 0.3
- hERG IC20/TLR9 IC50 (hERG channel): 0.2
